Experimental data taken from US12161632B2, “Compositions and methods of treating cardiac fibrosis with ifetroban” (Cumberland Pharmaceuticals Inc., priority 2014, dated 2024).
Counter-ions that a name gives are not always drawn.

What was measured:
[1] = test system: right ventricle gene expression; experiment: Right ventricle gene expression, Affymetrix Mouse Gene 2.0 arrays (Example IV); format: in vivo, mice; settings: sham surgery mice, 25 mg/kg/day, 2 weeks
Method: FVB/N mice or mice with a GFP macrophage-specific lineage tracing marker (LysM-Cre) underwent pulmonary banding to directly increase load stress (or sham surgery for controls), and starting the following day received either vehicle or the thromboxane receptor antagonist Ifetroban sodium in their drinking water (25 mg/kg/day). After 2 weeks, noninvasive hemodynamics were obtained by transthoracic echocardiography and invasive hemodynamics were obtained by pressure-volume catheterization of the right heart prior to sacrifice. Hearts were assessed for fibrosis and macrophage infiltration. RNA from right ventricles were isolated and used for unbiased discovery of altered gene expression using Affymetrix Mouse Gene 2.0 arrays performed on four groups (banded or sham). LysM-Cre mouse hearts were flash-frozen whole, cross-sectioned, and assessed by microscopy for fibrosis and macrophage infiltration. Differences between groups were assessed by ANOVA and t-tests. Correlations were assessed by Spearman correlation.

[2] = test system: pulmonary artery banding (PAB) model of right ventricular pressure overload; experiment: PAB model of right ventricular pressure overload: hemodynamics, echocardiography, histology (Example VII); format: in vivo; settings: PAB mice
[3] = test system: RV monocytes / macrophages; experiment: Cardiac monocytes: LysM-Cre lineage tracing and flow cytometry of RV (Example VII); format: in vivo, mice; settings: LysM-Cre reporter mice, aspirin
Method: Both male and female age-matched C57Bl/6 or FVB/NJ mice, obtained by in-house breeding, were used for pulmonary artery banding. LysM-GFP mice were obtained by cross-breeding LysM-Cre×mTomato/GFP reporter mice B6.129P2-Lyz2tm1(cre)Ifo/J (a gift from Tim Blackwell)×Gt(ROSA)26Sortm4(ACTB-tdTomato, -EGFP)Luo (JAX stock #007676). The day following surgery, mice were given either 25 mg/kg/day IFETROBAN (Cumberland Pharmaceuticals Inc., Nashville, TN) in drinking water or normal drinking water (vehicle) for 2 weeks or 6 weeks prior to hemodynamic evaluation. Mice were weighed and water was changed once a week.
TP receptors are also expressed on monocytes, and blockade of these receptors may have immune-specific effects. To determine whether the decrease in fibrosis seen with TP receptor inhibition was due to decreased macrophage infiltration or proliferation in the RV, PAB on LysM-Cre mice expressing eGFP under the LysozymeM promoter was performed, where all cells that have ever had monocyte lineage are labeled with GFP, even if they have later differentiated. […] Transgenic LysM-Cre×flox-mTomato-flox eGFP mice were used to label cells of monocyte derivation in the RV. These mice express a fluorescent red, except in cells derived from monocyte lineage (even if they have later differentiated), which express a fluorescent green. […] Flow sorting of whole RV for circulating markers found a non-significant trend towards an increase in PA-banded mice that was blocked by ifetroban.

SMILES	the same expression changes in the sham surgery group [1]	replication of the ifetroban results (fibrosis, hypertrophy, TSP-4, TGF-beta) ([2]; low-dose aspirin)	RV fibrosis (Masson's trichrome) ([2]; oral aspirin 10 mg/kg/day, 2 weeks)	number of RV monocytes / green (monocyte lineage) cells after PAB [3]	number of RV monocytes / green (monocyte lineage) cells after PAB ([3]; listed as ASA)
CCCCCNC(=O)c1coc([C@H]2[C@@H](Cc3ccccc3CCC(=O)O)[C@@H]3CC[C@H]2O3)n1 [Ifetroban sodium, [1S-(1α,2α,3α,4α)]-2-[[3-[4-[(Pentylamino)carbonyl]-2-oxazolyl]-7-oxabicyclo[2.2.1]hept-2-yl]methyl]-benzenepropanoic acid, monosodium salt]	not found in the sham surgery group	–	–	–	–
CC(=O)Oc1ccccc1C(=O)O [aspirin]	–	failed to replicate these results	failed to prevent fibrosis	appeared to increase the number of RV monocytes	significantly increases numbers of green cells
